Assay results reported in US11939354B1, “Fusion peptide inhibitors of human coronavirus 229E” (KING FAISAL UNIVERSITY, priority 2023, dated 2024).
Ends that are not written are not given here.

How the values were obtained:
HCoV-229E = conditions: 24 h
[1] = Cytotoxicity (CC50) of tested peptides; conditions: African green monkey, Vero E6 cells
[2] = target: HCoV-229E spike (S) protein (human coronavirus 229E, UniProt P15423); assay: cell-based or functional assay

Molecule | IC50 (HCoV-229E) [µM] | Selectivity Index (HCoV-229E) | CC50 [1] [µM] | IC50, plaque reduction test against HCoV-229E [2] [µM]
HRLRQIRGIRARVVQIQKEIWRLNEVAKLLNESLIYLQE [Peptide 125] | 14.5 | 17.56 | 255 | –
CC[C@H](C)[C@H](NC(=O)CNC(=O)[C@H](CO)NC(=O)[C@@H](NC(=O)[C@H](CC(=O)O)NC(=O)CNC(=O)[C@H](CC(C)C)NC(=O)[C@@H](NC(=O)[C@@H](N)Cc1c[nH]cn1)C(C)C)[C@@H](C)CC)C(=O)N[C@@H](CC(N)=O)C(=O)N[C@@H](C)C(=O)N[C@@H](CO)C(=O)N[C@H](C(=O)N[C@H](C(=O)N[C@@H](CCC(N)=O)C(=O)N[C@H](C(=O)N[C@@H](CCC(N)=O)C(=O)N[C@@H](CCCCN)C(=O)N[C@@H](CCC(=O)O)C(=O)N[C@H](C(=O)N[C@@H](CC(=O)O)C(=O)N[C@@H](CCCNC(=N)N)C(=O)N[C@@H](CC(C)C)C(=O)N[C@@H](CC(N)=O)C(=O)N[C@@H](CCC(=O)O)C(=O)N[C@H](C(=O)N[C@@H](C)C(=O)N[C@@H](CCCCN)C(=O)N[C@@H](CC(N)=O)C(=O)N[C@@H](CC(C)C)C(=O)N[C@@H](Cc1c[nH]cn1)C(=O)N[C@@H](CCC(=O)O)C(=O)N[C@@H](CO)C(=O)N[C@@H](CC(C)C)C(=O)N[C@H](C(=O)N[C@@H](Cc1ccc(O)cc1)C(=O)N[C@@H](CC(C)C)C(=O)N[C@@H](CCC(N)=O)C(=O)N[C@@H](CCC(=O)O)C(=O)O)[C@@H](C)CC)C(C)C)[C@@H](C)CC)[C@@H](C)CC)C(C)C)C(C)C [Peptide 121] | 14.2 | 13.06 | 251 | –
HVLGDISGINASVVQIQKEIDRLNEVAKNLHESLIYLQE [Peptide 121] | – | – | – | 14.2
HRLRQIRGIRARVVQIQKEIWRLNEVAKLLNESLIYLQE [Peptide 125] | – | – | – | 14.5
